The pEC50 is the EC50 on a negative log10 scale, so that one unit is a factor of ten.

The structures appear in SMILES notation. pEC50, pIC50, pKi: −log10 of the molar value. A value given as a limit tells only on which side of the number the result lay.

The values below come from patent US11318137B2, “Quinazoline compounds as modulators of Ras signaling” (VANDERBILT UNIVERSITY, priority 2017, dated 2022).

Test [1] concerns the target T1, SOS-mediated nucleotide exchange on Ras (Homo sapiens, UniProt Q07889).
T1 sequence (Q07889 1-1333): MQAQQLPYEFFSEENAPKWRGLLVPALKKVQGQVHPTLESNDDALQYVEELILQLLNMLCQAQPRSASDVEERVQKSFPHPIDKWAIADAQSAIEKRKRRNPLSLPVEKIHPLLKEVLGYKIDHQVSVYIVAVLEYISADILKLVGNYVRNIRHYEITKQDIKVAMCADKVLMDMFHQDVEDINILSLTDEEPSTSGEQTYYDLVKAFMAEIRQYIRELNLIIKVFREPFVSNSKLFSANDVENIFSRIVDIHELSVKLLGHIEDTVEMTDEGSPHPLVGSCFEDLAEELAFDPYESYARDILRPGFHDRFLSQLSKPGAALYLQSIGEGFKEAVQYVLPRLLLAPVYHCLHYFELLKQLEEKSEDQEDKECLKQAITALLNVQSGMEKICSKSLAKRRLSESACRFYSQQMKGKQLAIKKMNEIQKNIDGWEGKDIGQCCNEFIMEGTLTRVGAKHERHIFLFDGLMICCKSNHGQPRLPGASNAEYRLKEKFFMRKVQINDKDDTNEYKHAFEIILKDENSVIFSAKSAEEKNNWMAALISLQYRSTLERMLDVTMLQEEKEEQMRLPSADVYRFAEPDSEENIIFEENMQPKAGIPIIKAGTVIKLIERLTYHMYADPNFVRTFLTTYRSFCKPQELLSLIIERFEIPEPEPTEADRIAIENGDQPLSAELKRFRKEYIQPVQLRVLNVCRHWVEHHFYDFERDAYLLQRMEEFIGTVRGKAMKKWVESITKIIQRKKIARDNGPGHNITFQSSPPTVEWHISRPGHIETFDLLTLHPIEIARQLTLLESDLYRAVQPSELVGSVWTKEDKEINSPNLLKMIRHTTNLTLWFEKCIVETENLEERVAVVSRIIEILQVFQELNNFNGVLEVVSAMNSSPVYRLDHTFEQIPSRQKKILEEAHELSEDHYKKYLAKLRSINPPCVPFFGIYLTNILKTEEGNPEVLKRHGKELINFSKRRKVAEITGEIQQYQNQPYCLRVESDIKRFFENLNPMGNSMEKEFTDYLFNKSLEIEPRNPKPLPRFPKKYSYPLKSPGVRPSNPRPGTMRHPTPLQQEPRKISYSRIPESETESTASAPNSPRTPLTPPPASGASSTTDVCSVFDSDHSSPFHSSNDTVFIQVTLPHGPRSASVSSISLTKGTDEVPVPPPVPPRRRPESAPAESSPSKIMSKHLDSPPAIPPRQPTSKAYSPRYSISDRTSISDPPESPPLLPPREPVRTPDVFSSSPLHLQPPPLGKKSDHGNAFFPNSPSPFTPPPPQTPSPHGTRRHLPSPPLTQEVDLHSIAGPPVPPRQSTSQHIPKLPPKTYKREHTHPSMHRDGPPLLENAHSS
Kind of test: SOS-mediated nucleotide exchange on Ras (BODIPY-GDP fluorescence). It is filed as biochemical. Particulars: Ras loaded with BODIPY-GDP, GTP and SOS added; EC50 from derived exchange rates. The method, boiled down:
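Compound, then GTP and SOS, were added to buffered Ras preloaded with BODIPY-GDP, and the fluorescence change from labeled GDP being exchanged for GTP was followed over time. Rates came from single-exponential fits, and EC50 from a four-parameter fit of mean rate against compound concentration.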

In the next test the target is T2, Son of Sevenless (SOS) (Homo sapiens, UniProt Q07889).
T2 sequence (Q07889 564-1049 limits assumed): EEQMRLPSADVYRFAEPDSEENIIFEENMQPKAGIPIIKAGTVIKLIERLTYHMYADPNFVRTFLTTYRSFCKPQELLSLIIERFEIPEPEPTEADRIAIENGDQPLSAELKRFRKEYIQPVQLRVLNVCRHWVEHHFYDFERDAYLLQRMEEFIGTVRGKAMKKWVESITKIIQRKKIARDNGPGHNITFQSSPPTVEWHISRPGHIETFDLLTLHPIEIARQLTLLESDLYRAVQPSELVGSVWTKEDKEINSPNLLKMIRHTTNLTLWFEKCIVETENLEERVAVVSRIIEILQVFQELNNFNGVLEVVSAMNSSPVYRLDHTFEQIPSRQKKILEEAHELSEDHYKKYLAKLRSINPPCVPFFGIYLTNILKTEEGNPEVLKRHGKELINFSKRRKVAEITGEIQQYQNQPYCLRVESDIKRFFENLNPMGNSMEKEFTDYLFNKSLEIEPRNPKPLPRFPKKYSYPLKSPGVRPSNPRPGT
Kind of test: Binding to SOS, fluorescence polarization anisotropy (FPA) displacement of FITC-conjugated probe. Particulars: binding affinity calculated from IC50 of FITC-probe displacement, read-out: Binding affinities (binding affinity to SOS). In short, it runs like this:
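FITC-labelled probe incubated with SOS in buffer; displacement by test compound across a dose range read as fluorescence anisotropy change. IC50 from four-parameter variable-slope fit, binding affinity calculated from IC50.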

Test [2] deals with H727 lung cancer cell lines, which contain a G12V K-Ras mutation. The experiment in a line: Inhibition of cancer cell proliferation (CellTiter-Glo, 3 days). As to conditions: Homo sapiens, NCI-H727, 72 h, H727 cells, 3 days at 37° C., normalized to DMSO control, read-out: Cell proliferation activity (H727 cancer cell line proliferation IC50). It is filed as cell-based. The method, then:
C. Inhibition of Cancer Cell Proliferation
Compounds of the present invention were measured for their ability to kill H727 lung cancer cell lines, which contain a G12V K-Ras mutation. Cell proliferation experiments were conducted in 96-well plates. Cells were plated at 1000 cells/well, incubated overnight, followed by treatment with a dose range of compound for 3 days at 37° C. Cell proliferation was assessed using a CellTiter-Glo assay (Promega) according to the manufacturer's protocol. Data were normalized to DMSO control. IC50 values were determined using a four-parameter dose-response (variable slope) equation. These assays are performed in a manner analogous to the assay disclosed in: Burns, M. C.; Sun, Q.; Daniels, R. N.; Camper, D. V.; Kennedy, J. P.; Phan, J.; Olejniczak, E. O.; Lee, T.; Waterson, A. G.; Rossanese, O. W.; Fesik, S. W. “Approach for targeting Ras with small molecules that activate SOS-mediated nucleotide exchange” Proc. Natl. Acad. Sci. 2014; 11(9): 3401-3406. PMCID: PMC3948241.

As to `CC1CCC(CNc2nc(N[C@H](C)C3CC3)c3cccc(C4=CCNCC4)c3n2)CC1` (stereo partly drawn) [Example 104, (R)—N^4-(1-cyclopropylethyl)-N^2-((4-methylcyclohexyl)methyl)-8-(1,2,3,6-tetrahydropyridin-4-yl)quinazoline-2,4-diamine], the negative logarithm of the EC50 (pEC50) in test [1] was 5.30 to 6.00. For the same molecule, the pKi on Son of Sevenless (SOS) was 5.30 to 6.00. For the same molecule, the pIC50 in test [2] was above 6.00.
